The test system of assay [1] is Aeromonas hydrophila. Kind of assay: In-vitro antibacterial activity, MIC by broth dilution. The note with it: Aeromonas hydrophila; broth dilution, 24 h; read-out: MIC values Aeromonas hydrophila. It is filed as cell-based. How it is done:
(§1) All test compounds were dissolved in dimethyl sulfoxide (DMSO, Sigma, USA) and then diluted in Dulbecco’s modified Eagle’s medium (DMEM, Gibco, USA) at desired concentrations for cell proliferation analyses or diluted in nutrient broth medium for antimicrobial susceptibility testing respectively. The final concentration of DMSO in the DMEM culture medium was under 0.1% (v:v).
(§2) The preliminary antibacterial activities were obtained for selected compounds against various bacteria, namely: Staphyloccocus aureus ATCC25923 (Gram-positive bacteria), Clostridium perfringen CVCC52,8604 (anaerobes bacteria), Salmonella pullorum (Gram-negative bacteria), Escherichia coli ATCC25922 (Gram negative bacteria) and Aeromonas hydrophila (Gram-negative bacteria) were used in the study. Each strain was cultured in appropriate broth medium. Clostridium perfringen was incubated in an anaerobic chamber. The minimum inhibitory concentration (MIC) for each test compound was estimated using the broth dilution method. The MIC’s was determined for each strain/compound pairs that presented antimicrobial activity. The method was modified from Mohapatra›s methods ([14], [15]). Cell suspensions were prepared in 2 mL of liquid medium with concentrations of various tests of compounds in 15 mL culture tubes by inoculation with 100 μL of 10^6 cfu/mL from each stock. The cultures were incubated at 28 °C or 37 °C for 24 h. Tubes showing no visible turbidity represented the MIC, and subsequently, were inoculated on the right side of the 9cm sterile nutrient agar plates without various test compounds and incubated for 24 h (Clostridium perfringen was incubated in an anaerobic chamber.). The least concentration, at which no growth was observed, represented the minimum bactericidal concentration (MBC) ([16]).
On the technique in general: In broth dilution the organism is exposed to a series of concentrations in liquid medium.

The test system of assay [2] is Escherichia coli ATCC25922. The description is as above. As to conditions: Escherichia coli, ATCC25922; broth dilution, 24 h; read-out: MIC values Escherichia coli ATCC25922. It is filed as cell-based. How it is done: as §1, §2
Assay [3] has as its system Salmonella pullorum. The assay is described as above. Type of assay: cell-based. The note with it: Salmonella enterica, PULLORUM, 24 h. How it is done: as §1, §2
The subject of assay [4] is Staphyloccocus aureus ATCC25923. Described as above. It is filed as cell-based. The note with it: broth dilution, 24 h; read-out: MIC values Staphyloccocus aureus ATCC25923. How it is done: as §1, §2
Assay [5] deals with Clostridium perfringen CVCC52,8604. Kind of assay: In-vitro antibacterial activity, MIC by broth dilution (anaerobic chamber). Type of assay: cell-based. As to conditions: Clostridium, 24 h. How it is done: as §1, §2
Assay [6] has as its system HepG2 cells. Kind of assay: In-vitro cytotoxicity, MTT cell proliferation assay. It is filed as cell-based, human. As to conditions: Homo sapiens, HepG2, 24 h, 24 h incubation, concentration reducing viable cells by 50%. How it is done:
as §1
(§3) HepG2 and normal human Chang liver cells were obtained from the Institute of Biochemistry and Cell Biology, Shanghai Institutes for Biological Sciences, Chinese Academy of Sciences (Shanghai, China). HepG2 and normal human Chang liver cells were cultured at 37˚Cwith 5% CO2 in DMEM supplemented with 2% L-glutamine, 10% fetal bovine serum (Gibco, USA), 100 U/mL penicillin and 100 […] (Gibco, USA).
(§4) The methodology for evaluating the cytotoxicity inhibitory activity of various test compounds towards cell proliferation has been described previously ([11], [17]). Cell proliferation inhibitory analyses were carried out using the 3-(4,5-dimethylthiazole-2-yl)-2,5-diphenyl tetrazolium bromide (MTT, Sigma, USA) assay. Briefly, cancers HepG2 and normal human Chang liver cells were harvested and resuspended in fresh growth medium. A 100 μL cell suspension (5 × 10^4 cells/mL) was aliquoted into each well of a 96-well culture plate. After 12 h incubation, the medium was replaced with fresh medium containing various concentrations of test compounds. The cells were then incubated for another 24 h. At the end of exposure, 10 μL of MTT solution (5 mg/mL) was added, and the cells were incubated for 4 h at 37 °C. The cells were treated with 100 μL DMSO, and absorbance was recorded at 570 nm using a microplate ELISA reader (ELX800, Bio-Tek, USA). All experiments were performed at least thrice, and data were presented as the mean of sixplicate wells ± standard deviation (SD). Cell inhibition was calculated as follows:
(§5) (OD of control group − OD of experimental group) / (OD of control group − OD of blank group) ×100%. The IC50 value for a compound was calculated using SPSS.
(In general: Tetrazolium dyes change colour on reduction, which living cells bring about.)

For assay [7], the system named is normal human Chang liver cells. Described as above. Type of assay: cell-based. As to conditions: Homo sapiens, Chang liver, 24 h, 24 h incubation, concentration reducing viable cells by 50%. How it is done:
as §1, §3, §4, §5

Assay [8] has as its system Aeromonas hydrophila. Briefly: Minimum bactericidal concentration (MBC), subculture on nutrient agar. It is filed as cell-based. The note with it: least concentration with no growth on agar plates, 24 h. How it is done:
as §2, with “The least concentration, at which no growth was observed, represented the minimum bactericidal concentration (MBC) ([16]).” left out

For assay [9], the system named is Gram-positive and Gram-negative bacteria. Kind of assay: Antibacterial activity class based on the MIC results. It is filed as cell-based. As for the experimental part:
as §2
In this study, activity of quinoxaline-1, 4-dioxides and their deoxygenations was tested against selected Gram-negative bacteria (Escherichia coli, Salmonella pullorum and Aeromonas hydrophila), Gram-positive bacteria (Staphyloccocus aureus and Clostridium perfringen). The in-vitro antibacterial activity was based on the MIC results: Strong antibacterial activity, if MIC is less than 50 μg/mL; Moderate, if MIC is in between 50 and 250 μg/mL; No activity, if MIC is more than 500 μg/mL.

Assay [10] concerns HepG2, Vero, L-02 and Chang liver cell lines. On the set-up: method as in PMID 19061932, PMID 22840332. As to conditions: in-vitro, ref [7],[11]; cited from earlier work.

≈ marks a conversion by molar mass, not a printed value.

What is called MIC is the least concentration at which growth counts as inhibited. In general, IC50 refers to the point on the concentration scale where inhibition reaches its midpoint. Lower therefore signals higher potency. The term MBC denotes the lowest tested concentration that kills the bacteria rather than only halting them. A higher MBC goes with weaker bactericidal potency. Turning to `Cc1c(C(=O)NCCO)[n+]([O-])c2ccccc2[n+]1[O-]` [olaquindox, n-(2-hydroxyethyl)-3-methyl-2-quinoxalinecarboxamide 1,4-dioxide, reference compound], the MIC came to 21 µg/mL (≈ 79.9 µM) in assay [1]; 21 µg/mL (≈ 79.9 µM) in assay [2]; 84.2 µg/mL (≈ 320 µM) in assay [3]; 42.1 µg/mL (≈ 160 µM) in assay [4]; 67.3 µg/mL (≈ 256 µM) in assay [5]. Also, the half-inhibitory concentration (IC50) in [6] stood at 893 ± 14.7 µM; in assay [7], 815 ± 31.2 µM. In addition, in [8], the MBC stood at 84.2 µg/mL (≈ 320 µM). Also, the “antibacterial activity against Gram-positive and Gram-negative bacteria” value in [9] is reported as “strong or moderate activity”. In addition, the growth inhibitory effects entry in assay [10] is recorded as “much lower than quinocetone”.

Values taken from publication PMC5603865, “Synthesis, In-Vitro Activity and Metabolic Properties of Quinocetone and Structurally Similar Compounds” (Iranian Journal of Pharmaceutical Research : IJPR, 2017).
